Measured values: ChEMBL document CHEMBL1201862, “PubChem BioAssay data set” (2004)
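Method: 48-hour compound exposure of cells in 96-well plates, five concentrations, linear interpolation of endpoints. GI50 = concentration required for 50% inhibition of growth.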 Active and inactive are the calls of the source. No stated cut-off is given here; in the data, active = GI50 up to about 1.1 µM and inactive = higher.

Tests used:
Test in all cases: inhibition of tumour cell growth, NCI panel, 48 h
[1] = tested on: CAKI-1
[2] = tested on: CCRF-CEM
[3] = tested on: HCT-116
[4] = tested on: HCT-15
[5] = tested on: HOP-92
[6] = tested on: HT-29
[7] = tested on: K562
[8] = tested on: M14
[9] = tested on: MCF7
[10] = tested on: NCI-H23
[11] = tested on: OVCAR-5
[12] = tested on: OVCAR-8
[13] = tested on: RPMI-8226
[14] = tested on: SF-539
[15] = tested on: SK-MEL-2
[16] = tested on: SN12C
[17] = tested on: SNB-19
[18] = tested on: UACC-257
[19] = tested on: UACC-62
[20] = tested on: Malme-3M

Structure (SMILES)	GI50 [1]	GI50 [2]	GI50 [3]	GI50 [4] [µM]	GI50 [5]	GI50 [6]	GI50 [7]	GI50 [8]	GI50 [9]	GI50 [10]	GI50 [11]	GI50 [12]	GI50 [13]	GI50 [14]	GI50 [15]	GI50 [16]	GI50 [17]	GI50 [18]	GI50 [19]	GI50 [20]
COc1ccc2oc(C(=O)N3CC(CCl)c4ccc(N)cc43)cc2c1 (configuration not stated)	0.185 µM (active)	0.36 µM (active)	0.161 µM (active)	0.238	0.358 µM (active)	0.357 µM (active)	0.39 µM (active)	0.805 µM (active)	0.465 µM (active)	0.174 µM (active)	0.53 µM (active)	0.279 µM (active)	0.226 µM (active)	0.481 µM (active)	0.238 µM (active)	0.869 µM (active)	1.14 µM (inactive)	0.596 µM (active)	0.192 µM (active)	–
COC(=O)C(CCCCN)NC(=O)C(CCCCN)NC(=O)C(CCCCN)NC(C)=O.Cc1ccc(C(=O)Nc2ccc(S(=O)(=O)O)c3cc(S(=O)(=O)O)cc(S(=O)(=O)O)c23)cc1NC(=O)c1cccc(NC(=O)Nc2cccc(C(=O)Nc3cc(C(=O)Nc4ccc(S(=O)(=O)O)c5cc(S(=O)(=O)O)cc(S(=O)(=O)O)c45)ccc3C)c2)c1	> 50 µM (inactive)	> 50 µM (inactive)	> 50 µM (inactive)	18.6	> 50 µM (inactive)	> 50 µM (inactive)	> 50 µM (inactive)	> 50 µM (inactive)	> 50 µM (inactive)	> 50 µM (inactive)	> 50 µM (inactive)	> 50 µM (inactive)	> 50 µM (inactive)	> 50 µM (inactive)	> 50 µM (inactive)	> 50 µM (inactive)	> 50 µM (inactive)	> 50 µM (inactive)	> 50 µM (inactive)	–
CC(C)(Cl)C(Br)CC/C(=C/CBr)CBr.CC(C)(Cl)C(Br)CC/C(=C\CBr)CBr (configuration not stated)	–	0.959 µM (active)	1.79 µM (inactive)	1.95	2.03 µM (inactive)	1.95 µM (inactive)	1.71 µM (inactive)	2 µM (inactive)	2.84 µM (inactive)	2.83 µM (inactive)	13.2 µM (inactive)	3.01 µM (inactive)	1.11 µM (active)	2.47 µM (inactive)	4.98 µM (inactive)	2.49 µM (inactive)	4.12 µM (inactive)	4.37 µM (inactive)	5.01 µM (inactive)	1.78 µM (inactive)
C(CCCCc1nnc(N2CCCCC2)o1)CCCc1nnc(N2CCCCC2)o1	> 100 µM (inactive)	> 100 µM (inactive)	> 100 µM (inactive)	> 100	> 100 µM (inactive)	> 100 µM (inactive)	> 100 µM (inactive)	> 100 µM (inactive)	> 100 µM (inactive)	> 100 µM (inactive)	> 100 µM (inactive)	> 100 µM (inactive)	–	> 100 µM (inactive)	> 100 µM (inactive)	> 100 µM (inactive)	> 100 µM (inactive)	> 100 µM (inactive)	–	> 100 µM (inactive)
COC(=O)c1ccccc1C1CN=NC12Cc1cc(C)cc(C)c1C2=O (configuration not stated)	36.8 µM (inactive)	33.4 µM (inactive)	44.1 µM (inactive)	17.3	26.9 µM (inactive)	23.4 µM (inactive)	40.5 µM (inactive)	67.8 µM (inactive)	27.5 µM (inactive)	15.1 µM (inactive)	> 100 µM (inactive)	> 100 µM (inactive)	–	> 100 µM (inactive)	> 100 µM (inactive)	83.2 µM (inactive)	> 100 µM (inactive)	34 µM (inactive)	75.5 µM (inactive)	97.9 µM (inactive)
Cc1cc2[nH]c3c(C#N)c4c(c(=O)n3c2cc1C)CCCC4	> 100 µM (inactive)	> 100 µM (inactive)	> 100 µM (inactive)	> 100	87.7 µM (inactive)	> 100 µM (inactive)	64.9 µM (inactive)	14.5 µM (inactive)	> 100 µM (inactive)	> 100 µM (inactive)	18.7 µM (inactive)	> 100 µM (inactive)	–	> 100 µM (inactive)	> 100 µM (inactive)	> 100 µM (inactive)	31 µM (inactive)	> 100 µM (inactive)	> 100 µM (inactive)	> 100 µM (inactive)
OC(C1CO1)C(O)C1CO1 (configuration not stated)	–	3.71 µM (inactive)	45.8 µM (inactive)	55.3	> 75.5 µM (inactive)	63.5 µM (inactive)	81.3 µM (inactive)	18.6 µM (inactive)	11.7 µM (inactive)	20.1 µM (inactive)	77.1 µM (inactive)	55.2 µM (inactive)	69 µM (inactive)	23.9 µM (inactive)	61.1 µM (inactive)	20.7 µM (inactive)	58.9 µM (inactive)	81.7 µM (inactive)	9.27 µM (inactive)	55.7 µM (inactive)
COc1ccc(/C=C2\CSC/C(=C\c3ccc(OC)c(OC)c3OC)C2=O)c(OC)c1OC	–	12.9 µM (inactive)	17 µM (inactive)	25.6	35.6 µM (inactive)	28.8 µM (inactive)	23.1 µM (inactive)	18.5 µM (inactive)	65 µM (inactive)	43.5 µM (inactive)	> 100 µM (inactive)	24.1 µM (inactive)	16.4 µM (inactive)	26.4 µM (inactive)	54.6 µM (inactive)	24.2 µM (inactive)	> 100 µM (inactive)	42.3 µM (inactive)	14.9 µM (inactive)	5.86 µM (inactive)
COC(=O)C1=C(O)C(C(=O)OC)[C@]2(O)[C@H](C(=O)OC)[C@H]1C[C@@H](c1ccc(OC)c(OC)c1)[C@H]2C(=O)OC (some centres not stated)	25.8 µM (inactive)	0.129 µM (active)	21 µM (inactive)	14	21.2 µM (inactive)	36.9 µM (inactive)	13.6 µM (inactive)	12.3 µM (inactive)	17.3 µM (inactive)	19.8 µM (inactive)	23.6 µM (inactive)	13.3 µM (inactive)	3.27 µM (inactive)	4.78 µM (inactive)	20 µM (inactive)	28.2 µM (inactive)	14.6 µM (inactive)	20.5 µM (inactive)	22.9 µM (inactive)	–
CCOP(=O)(OCC)/C(=C/c1ccccc1)CC(C)=O	> 100 µM (inactive)	> 100 µM (inactive)	> 100 µM (inactive)	> 100	> 100 µM (inactive)	> 100 µM (inactive)	> 100 µM (inactive)	> 100 µM (inactive)	> 100 µM (inactive)	> 100 µM (inactive)	> 100 µM (inactive)	> 100 µM (inactive)	–	> 100 µM (inactive)	> 100 µM (inactive)	> 100 µM (inactive)	> 100 µM (inactive)	> 100 µM (inactive)	> 100 µM (inactive)	> 100 µM (inactive)
COc1ccc(-c2nc(SCC(=O)N/N=C/c3ccc(N(C)C)cc3)[nH]c2-c2ccc(OC)cc2)cc1	> 100 µM (inactive)	8.57 µM (inactive)	37.9 µM (inactive)	46.3	> 100 µM (inactive)	34.6 µM (inactive)	18.5 µM (inactive)	35.2 µM (inactive)	13.5 µM (inactive)	> 100 µM (inactive)	99.5 µM (inactive)	84.7 µM (inactive)	–	> 100 µM (inactive)	86.1 µM (inactive)	82 µM (inactive)	> 100 µM (inactive)	> 100 µM (inactive)	46.7 µM (inactive)	> 100 µM (inactive)
COc1ccccc1CNC1=Nc2ccncc2S(=O)(=O)N1c1ccccc1	63.8 µM (inactive)	95.5 µM (inactive)	70.5 µM (inactive)	49.7	39.7 µM (inactive)	> 100 µM (inactive)	71 µM (inactive)	> 100 µM (inactive)	79.4 µM (inactive)	85.1 µM (inactive)	> 100 µM (inactive)	84.7 µM (inactive)	60.5 µM (inactive)	–	–	> 100 µM (inactive)	> 100 µM (inactive)	82.8 µM (inactive)	35.9 µM (inactive)	37.7 µM (inactive)
CC(C)(C)C(=O)C(Cc1ccccc1)C(=O)C(C)(C)C	> 100 µM (inactive)	39.6 µM (inactive)	52.6 µM (inactive)	> 100	29.6 µM (inactive)	39.4 µM (inactive)	55 µM (inactive)	> 100 µM (inactive)	> 100 µM (inactive)	> 100 µM (inactive)	> 100 µM (inactive)	> 100 µM (inactive)	37.4 µM (inactive)	> 100 µM (inactive)	> 100 µM (inactive)	> 100 µM (inactive)	> 100 µM (inactive)	> 100 µM (inactive)	–	> 100 µM (inactive)
FC(F)(F)c1cc(N(C2c3ccccc3C=Cc3ccccc32)P(Cl)Cl)cc(C(F)(F)F)c1	21.9 µM (inactive)	24 µM (inactive)	16.5 µM (inactive)	5.78	15.6 µM (inactive)	24.5 µM (inactive)	15.2 µM (inactive)	22.8 µM (inactive)	20.7 µM (inactive)	18 µM (inactive)	20 µM (inactive)	17.6 µM (inactive)	18 µM (inactive)	26.7 µM (inactive)	18.7 µM (inactive)	16.9 µM (inactive)	21.8 µM (inactive)	18.3 µM (inactive)	–	17.5 µM (inactive)
NCC1OC(OC2C(N)CC(N)C(O)C2OC2OC(CO)C(O)C2O)C(N)C(O)C1O (configuration not stated)	> 100 µM (inactive)	> 100 µM (inactive)	–	> 100	> 50 µM (inactive)	> 50 µM (inactive)	> 100 µM (inactive)	> 50 µM (inactive)	> 100 µM (inactive)	> 100 µM (inactive)	> 100 µM (inactive)	> 50 µM (inactive)	–	> 100 µM (inactive)	> 50 µM (inactive)	> 50 µM (inactive)	> 50 µM (inactive)	> 50 µM (inactive)	> 100 µM (inactive)	> 100 µM (inactive)
